Laboratory results reported in patent US4241069A, “3-Methylene flavanones and 3-methylene chromanones” (Miles Laboratories, Inc., priority 1979, dated 1980).
Values after ≈ are worked out from the molar mass of the structure shown.

Columns and labels:
A. fumigatus NRRL 163 = test: MIC, agar incorporation method; format: cell-based; settings: Aspergillus fumigatus, NRRL163, NRRL 163; 32° C., 48-72 hours; read-out: Minimal Inhibitory Concentration
Experimental: (§1) The compounds of the present invention were tested for their ability to inhibit the growth of microorganisms by in vitro tests. Generally the in vitro tests involve growing representative microorganisms under conditions favorable to such growth and measuring the effectiveness of one or more compounds in inhibiting or destroying the growth of the microorganisms. The microorganisms used include representative bacteria, fungi and yeasts.
(§2) A representative selection of the test microorganisms were cultured in a nutrient broth, such as, for example, Eugon, commercially available from Difco Laboratories, Detroit, Michigan. Bacteria and Candida species were cultured for 24 hours at 32°-37° C. and fungi were cultured for approximately one week at 32° C. Inocula were prepared by suspending the growth or spores from a slant culture in sufficient sterile normal (0.9 percent) saline or Eugon broth, to yield cell or spore concentrations of 1,000,000 cells per milliliter. Anaerobic bacteria were cultured for 48-72 hours at 32°-37° C. in a thioglycollate containing medium, for example, Fluid Thioglycollate medium or NIH thioglycollate broth, commercially available from Difco Laboratories.
(§3) The compounds of the present invention were tested for activity against bacteria, yeasts and fungi by the agar incorporation method described below. MA 1347, 3-(dimethylaminomethyl)flavanone (disclosed in U.S. Pat. No. 3,753,985) was used as a comparative standard along with controls for each solvent system used.
(§4) A series of agar plates containing two-fold dilutions of each compound to be tested, ranging in concentration from 100 to 3.1 mcg/ml of agar medium was prepared. Aliquots of each concentration (100, 50, 25, 12.5, 6.2, and 3.1) prepared in N,N-dimethylformamide or 50 percent aqueous DMF were added to liquid Eugon agar at 48° C. (one part test solution to 100 parts agar). In some cases, tests with further dilutions to 0.125 mcg/ml were conducted. The agar medium, containing the 3-methylene flavanone or chromanone compound to be tested, was then dispensed into petri dishes and allowed to solidify. The solidified plates were kept overnight at room temperatures to dry the surface of the agar.
(§5) The agar plates were then inoculated with a drop of the standardized cell or spore suspension. Inoculated plates were incubated at 32° C. The inhibition end-point or minimum inhibitory concentration (MIC) shown in Table D represent the lowest concentration of test compound which inhibited the growth of the microorganism. Visual determination of growth inhibition was used. Bacteria and yeast end-points were determined after 24 hours incubation; molds, dermatophytes and anaerobes after 48-72 hours incubation. MIC values shown as ranges represent the extremes found in repeat assays. Virtually all such values were written plus or minus one dilution, the accepted variation of a two-fold dilution assay.

[1] = tested on: Aspergillus niger ATCC 16404; test: MIC, agar incorporation method; format: cell-based; settings: ATCC16404, 32° C., 48-72 hours, read-out: Minimal Inhibitory Concentration
Experimental: as §1, §2, §3, §4, §5

C. albicans NRRL Y-477 = test: MIC, agar incorporation method; format: cell-based; settings: Candida albicans, NRRLY477, 32° C., 24 hours, read-out: Minimal Inhibitory Concentration
Experimental: as §1, §2, §3, §4, §5

C. guillermondii VM 42 = test: MIC, agar incorporation method; format: cell-based; settings: 32° C., 24 hours; read-out: Minimal Inhibitory Concentration
Experimental: as §1, §2, §3, §4, §5

C. krusei VM 29B = test: MIC, agar incorporation method; format: cell-based; settings: Pichia kudriavzevii, VM29B; 32° C., 24 hours; read-out: Minimal Inhibitory Concentration
Experimental: as §1, §2, §3, §4, §5

C. tropicalis NRRL Y1410 = test: MIC, agar incorporation method; format: cell-based; settings: Candida tropicalis, NRRLY1410; 32° C., 24 hours; read-out: Minimal Inhibitory Concentration
Experimental: as §1, §2, §3, §4, §5

[2] = tested on: Candida albicans ATCC 10231; test: MIC, agar incorporation method; format: cell-based; settings: ATCC10231, C. albicans ATCC 10231, 32° C., 24 hours, read-out: Minimal Inhibitory Concentration
Experimental: as §1, §2, §3, §4, §5

[3] = tested on: Escherichia coli ATCC 8739; test: MIC, agar incorporation method; format: cell-based; settings: ATCC8739, 32° C., 24 hours, read-out: Minimal Inhibitory Concentration
Experimental: as §1, §2, §3, §4, §5

[4] = tested on: Microsporum gypseum ATCC 14683; test: MIC, agar incorporation method; format: cell-based; settings: Nannizzia gypsea, ATCC14683, 32° C., 48-72 hours; read-out: Minimal Inhibitory Concentration
Experimental: as §1, §2, §3, §4, §5

[5] = tested on: Pseudomonas aeruginosa ATCC 14502; test: MIC, agar incorporation method; format: cell-based; settings: ATCC14502, 32° C., 24 hours, read-out: Minimal Inhibitory Concentration
Experimental: as §1, §2, §3, §4, §5

[6] = tested on: Staphylococcus aureus ATCC 6538; test: MIC, agar incorporation method; format: cell-based; settings: Staphylococcus aureus, ATCC6538; S. aureus ATCC 6538; 32° C., 24 hours; read-out: Minimal Inhibitory Concentration
Experimental: as §1, §2, §3, §4, §5

[7] = tested on: Streptococcus faecalis ATCC 10541; test: MIC, agar incorporation method; format: cell-based; settings: Enterococcus faecalis, ATCC10541; 32° C., 24 hours; read-out: Minimal Inhibitory Concentration
Experimental: as §1, §2, §3, §4, §5

T. mentagrophytes CDC = test: MIC, agar incorporation method; format: cell-based; settings: Trichophyton mentagrophytes, 32° C., 48-72 hours, read-out: Minimal Inhibitory Concentration
Experimental: as §1, §2, §3, §4, §5

T. mentagrophytes TM-2 = test: MIC, agar incorporation method; format: cell-based; settings: Trichophyton mentagrophytes, TM2, 32° C., 48-72 hours, read-out: Minimal Inhibitory Concentration
Experimental: as §1, §2, §3, §4, §5

T. rubrum ATCC 10218 = test: MIC, agar incorporation method; format: cell-based; settings: Trichophyton rubrum, ATCC10218; 32° C., 48-72 hours; read-out: Minimal Inhibitory Concentration
Experimental: as §1, §2, §3, §4, §5

[8] = tested on: Trichophyton mentagrophytes ATCC 4807; test: MIC, agar incorporation method; format: cell-based; settings: ATCC4807, 32° C., 48-72 hours, read-out: Minimal Inhibitory Concentration
Experimental: as §1, §2, §3, §4, §5

S. aureus NRRL B2747 = test: MIC, agar incorporation method; format: cell-based, Staphylococcus aureus; settings: Staphylococcus aureus, NRRLB2747, 32° C., 24 hours, read-out: Minimal Inhibitory Concentration
Experimental: as §1, §2, §3, §4, §5

[9] = tested on: Propionobacterium acnes ATCC 6919; test: MIC, agar incorporation method, anaerobic; format: cell-based; settings: 48 hours at 35° C., GasPak Anaerobic Jar, read-out: Minimal Inhibitory Concentration
Experimental: as §1, §2, §3, §4, §5
*Anaerobic: 48 hours incubation at 35° C. GasPak Anaerobic Jar

A. fumigatus NRRL 165 = test: MIC, agar incorporation method; format: cell-based; settings: Aspergillus fumigatus, NRRL165, 32° C., 48-72 hours, read-out: Minimal Inhibitory Concentration
Experimental: as §1, §2, §3, §4, §5

SMILES | MIC (A. fumigatus NRRL 163) [µg/mL] | MIC [1] [µg/mL] | MIC (C. albicans NRRL Y-477) [µg/mL] | MIC (C. guillermondii VM 42) [µg/mL] | MIC (C. krusei VM 29B) [µg/mL] | MIC (C. tropicalis NRRL Y1410) [µg/mL] | MIC [2] [µg/mL] | MIC [3] [µg/mL] | MIC [4] [µg/mL] | MIC [5] [µg/mL] | MIC [6] [µg/mL] | MIC [7] [µg/mL] | MIC (T. mentagrophytes CDC) [µg/mL] | MIC (T. mentagrophytes TM-2) [µg/mL] | MIC (T. rubrum ATCC 10218) [µg/mL] | MIC [8] [µg/mL] | MIC (S. aureus NRRL B2747) [µg/mL] | MIC [9] [µg/mL] | MIC (A. fumigatus NRRL 165) [µg/mL]
C=C1C(=O)c2cc(C)ccc2OC1c1ccccc1 (centres unmarked) [compound 19, 6-methyl-3-methylene flavanone] | 25 (≈ 99.9 µM) | 25 (≈ 99.9 µM) | 25 (≈ 99.9 µM) | 25 (≈ 99.9 µM) | 25 (≈ 99.9 µM) | 25 (≈ 99.9 µM) | 25 (≈ 99.9 µM) | > 100 | 6.2 (≈ 24.8 µM) | > 100 | 6.2 (≈ 24.8 µM) | 50 (≈ 200 µM) | 6.2 (≈ 24.8 µM) | 6.2 (≈ 24.8 µM) | 6.2 (≈ 24.8 µM) | 6.2 (≈ 24.8 µM) | 6.2 (≈ 24.8 µM) | ≤ 100 | 
C=C1C(=O)c2ccccc2OC1c1cccc([N+](=O)[O-])c1 (centres unmarked) [compound 9, 3'-nitro-3-methylene flavanone] |  | 50 (≈ 178 µM) | 50 (≈ 178 µM) | 100 (≈ 356 µM) | 50 (≈ 178 µM) | 50 (≈ 178 µM) | 50 (≈ 178 µM) | > 100 | 6.2 (≈ 22 µM) | > 100 | 6.2 (≈ 22 µM) | 50 (≈ 178 µM) | 12.5 (≈ 44.4 µM) | 6.2 (≈ 22 µM) | 6.2 (≈ 22 µM) | 12.5 (≈ 44.4 µM) | 6.2 (≈ 22 µM) |  | 100 (≈ 356 µM)
C=C1C(=O)c2ccccc2OC1c1ccc(C#N)cc1 (centres unmarked) [Ex. 16, 4'-cyano-3-methylene flavanone] |  | 50 (≈ 191 µM) | 50 (≈ 191 µM) | 100 (≈ 383 µM) | 50 (≈ 191 µM) | 50 (≈ 191 µM) | 50 (≈ 191 µM) | > 100 | 12.5 (≈ 47.8 µM) | > 100 | 12.5 (≈ 47.8 µM) | 100 (≈ 383 µM) | 25 (≈ 95.7 µM) | 12.5 (≈ 47.8 µM) | 6.2 (≈ 23.7 µM) | 12.5 (≈ 47.8 µM) | 12.5 (≈ 47.8 µM) |  | 100 (≈ 383 µM)
C=C1C(=O)c2ccccc2OC1c1ccc2ccccc2c1 (centres unmarked) [compound 24, 3-methylene-2-(2-naphthyl) chromanone] |  | > 100 | 100 (≈ 349 µM) | > 100 | 25 (≈ 87.3 µM) | > 100 | > 100 | > 100 | 12.5 (≈ 43.7 µM) | > 100 | ≤ 3.1 | 50 (≈ 175 µM) | 25 (≈ 87.3 µM) | 12.5 (≈ 43.7 µM) | 6.2 (≈ 21.7 µM) | 12.5 (≈ 43.7 µM) | 6.2 (≈ 21.7 µM) |  | > 100
C=C1C(=O)c2ccccc2OC1c1cccc2ccccc12 (centres unmarked) [Ex. 23, 3-methylene-2-(1-naphthyl) chromanone] |  | > 100 | 100 (≈ 349 µM) | > 100 | 50 (≈ 175 µM) | > 100 | > 100 | > 100 | 6.2 (≈ 21.7 µM) | > 100 | ≤ 3.1 | 50 (≈ 175 µM) | 12.5 (≈ 43.7 µM) | 12.5 (≈ 43.7 µM) | 6.2 (≈ 21.7 µM) | 6.2 (≈ 21.7 µM) | 6.2 (≈ 21.7 µM) |  | > 100
